pKi: −log10 of the molar value. Like-named read-outs stand apart in the source and are kept apart here. Marks after values point to notes of the source that are not given here.
Columns and labels:
Female BALB/c mice = assay: Deaths following lipopolysaccharide (LPS) challenge; type: in vivo; details: 20 mg/kg LPS intravenous, monitored 72 hours
Protocol: Female BALB/c mice were dosed orally, twice a day with vehicle (0.2% HPMC), or drug at 30 mg/kg/day or 100 mg/kg/day. The mice were injected intravenous with 20 mg/kg LPS at 30 minutes after the first treatment dose. They were monitored for survival for 72 hours or until 80-90% lethality was observed.

[1] = test system: peritoneum following zymosan challenge; details: peritoneal lavage four hours post zymosan (2 mg/animal)
Protocol: Compounds were administered orally before an intraperitoneal zymosan injection (2 mg/animal).

[2] = target: Recombinant Human Poly(ADP-Ribose) Polymerase (PARP) (Homo sapiens, UniProt P09874); assay: Inhibition of PARP (PARP1 assay, [3H]-NAD+ / biotinylated histone H1, FlashPlate); details: read-out: PARP Inhibition Ki; Table 1; quaternary and non-quaternary compounds
Chain of Recombinant Human Poly(ADP-Ribose) Polymerase (PARP) (P09874 whole entry): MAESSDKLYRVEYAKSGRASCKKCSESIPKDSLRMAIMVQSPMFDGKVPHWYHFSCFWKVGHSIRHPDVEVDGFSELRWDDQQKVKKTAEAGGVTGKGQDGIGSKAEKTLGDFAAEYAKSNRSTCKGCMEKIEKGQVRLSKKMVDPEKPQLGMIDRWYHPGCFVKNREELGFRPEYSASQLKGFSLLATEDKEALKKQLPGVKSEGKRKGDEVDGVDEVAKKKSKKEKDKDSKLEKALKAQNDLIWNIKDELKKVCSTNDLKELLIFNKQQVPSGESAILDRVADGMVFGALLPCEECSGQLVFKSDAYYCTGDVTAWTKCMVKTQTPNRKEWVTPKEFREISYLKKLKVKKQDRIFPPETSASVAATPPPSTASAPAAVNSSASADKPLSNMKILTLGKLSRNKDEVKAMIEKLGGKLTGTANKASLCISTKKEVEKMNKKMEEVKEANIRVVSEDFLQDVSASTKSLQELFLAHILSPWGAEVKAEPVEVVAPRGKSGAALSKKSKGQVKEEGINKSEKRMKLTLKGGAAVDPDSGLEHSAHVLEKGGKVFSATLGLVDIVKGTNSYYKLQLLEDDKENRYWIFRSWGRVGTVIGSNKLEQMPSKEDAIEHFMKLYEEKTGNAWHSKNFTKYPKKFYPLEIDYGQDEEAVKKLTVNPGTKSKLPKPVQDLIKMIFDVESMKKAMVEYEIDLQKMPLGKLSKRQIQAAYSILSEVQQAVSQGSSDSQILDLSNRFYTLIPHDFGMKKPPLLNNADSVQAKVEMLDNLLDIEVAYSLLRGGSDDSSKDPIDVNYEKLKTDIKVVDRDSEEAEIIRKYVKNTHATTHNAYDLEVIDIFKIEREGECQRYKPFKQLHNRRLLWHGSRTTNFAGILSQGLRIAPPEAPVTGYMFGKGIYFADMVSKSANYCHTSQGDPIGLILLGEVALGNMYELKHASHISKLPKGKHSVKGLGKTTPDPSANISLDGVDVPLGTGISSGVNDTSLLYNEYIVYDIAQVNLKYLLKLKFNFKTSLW
Protocol: Nicotinamide[2,5′,8-3H]adenine dinucleotide and strepavidin SPA beads were purchased from Amersham Biosiences (UK) Recombinant Human Poly(ADP-Ribose) Polymerase (PARP) purified from E. coli and 6-Biotin-17-NAD^+, were purchase from Trevigen, Gaithersburg, Md. NAD^+, Histone, aminobenzamide, 3-amino benzamide and Calf Thymus DNA (dcDNA) were purchased from Sigma, St. Louis, Mo. Stem loop oligonucleotide containing MCAT sequence was obtained from Qiagen. The oligos were dissolved to 1 mM in annealing buffer containing 10 mM Tris HCl pH 7.5, 1 mM EDTA, and 50 mM NaCl, incubated for 5 min at 95° C., and followed by annealing at 45° C. for 45 minutes. […] Biotinylated histone H1 was prepared by treating the protein with Sulfo-NHS-LC-Biotin from Pierce Rockford, Ill. The biotinylation reaction was conducted by slowly and intermittently adding 3 equivalents of 10 mM Sulfo-NHS-LC-Biotin to 100 μM Histone H1 in phosphate-buffered saline, pH 7.5, at 4° C. with gentle vortexing over 1 min followed by subsequent 4° C. incubation for 1 hr. Streptavidin coated (FlashPlate Plus) microplates were purchased from Perkin Elmer, Boston, Mass.
PARP1 assay was conducted in PARP assay buffer containing 50 mM Tris pH 8.0, 1 mM DTT, 4 mM MgCl2. […] Auto reactions utilizing SPA bead-based detection were carried out in 100 μl volumes in white 96 well plates.

[3] = 30 mg/kg/day orally twice a day
[4] = 100 mg/kg/day orally twice a day

pKi [2]	Structure (SMILES)	Deaths following LPS challenge (lethality) (Female BALB/c mice; [3])	Deaths following LPS challenge (lethality) (Female BALB/c mice; [4])	Percent decrease in Cell Influx relative to control ([1]; 30 mg/kg orally)	Percent decrease in IL-1 level relative to control ([1]; 30 mg/kg orally)	Percent decrease in Cell Influx relative to control ([1]; 100 mg/kg orally)	Percent decrease in IL-1 level relative to control ([1]; 100 mg/kg orally)
	CCCN1CCC(c2nc3c(C(N)=O)cccc3[nH]2)CC1 [2-(1-propylpiperidin-4-yl)-1H-benzimidazole-4-carboxamide]	8/10	9/10	0%	32%	23%	47%*
	C[C@@]1(c2nc3c(C(N)=O)cccc3[nH]2)CCCN1 [Example 4, 2-[(2S)-2-methylpyrrolidin-2-yl]-1H-benzimidazole-4-carboxamide]	8/10	4/10*				
8.04	NC(=O)c1cccc2[nH]c(C3CCN(CCc4ccccc4)C3)nc12 (stereo not shown) [2-[1-(2-phenylethyl)pyrrolidin-3-yl]-1H-benzimidazole-4-carboxamide]						
7.47	NC(=O)c1cccc2[nH]c(C3CCN3)nc12 (stereo not shown) [2-azetidin-2-yl-1H-benzimidazole-4-carboxamide]						
